# Results as given in US20240197166A1, “COMPUTATIONAL IN SILICO MODEL FOR CORNEA BARRIER” (CFD Research Corporation, priority 2022, published 2024).
# Key:
# [1] = test system: corneal barrier of the in vitro cornea device (epithelial, fibroblast, endothelial triculture); test: Permeability of the in vitro cornea device to FSS after trypan blue exposure; type: cell-based; details: trypan blue injected into TFEp channel at 3 μL/min for 4 min, incubated at 37° C. for 15 min; then FSS injected into TFEp channel and permeability assayed; worded "can be"
# Method: (§1) In some embodiments, all channels of the device can be coated with human fibronectin to facilitate cellular attachment. For example, primary human corneal fibroblasts can be seeded on Day 0. Fibroblasts can be harvested, concentrated to 1×10^7 cells/mL and injected into the stromal chamber via a remote head syringe pump at 5 μL/min until cells are homogenously distributed. Devices can then be incubated at 37° C., 5% CO2 for 4 hours to allow for attachment. Media can be subsequently refreshed every 24 hours. Primary human corneal epithelial cells can be seeded into the TFEp circulation channel on Day 3. […]
# (§2) Viability can be assessed on-chip as an endpoint for epithelial, fibroblast, and endothelial cells. Devices are prepared for viability quantitation by incubation with calcein AM and ethidium homodimer in PBS. After rinsing the cells with PBS, fluorescent images are taken via microscope, and the data was analyzed to determine cornea triculture viability (scc, FIG. 5A). […]
# Following exposure, FSS can be injected into the TFEp channel and permeability assayed. […] Samples can be taken from cell-laden channels (individually or combined) and placed in a low volume, white walled […] plate for luminescence analysis using a plate reader. […] The increase in AK release in arbitrary luminescence units compares the toxic exposure of trypan blue to positive and negative controls. […]
# [2] = test system: cells of the in vitro cornea device (cell-laden channels); test: Cytotoxicity by adenylate kinase release (luminescence) from the cell-laden channels of the in vitro cornea device; type: cell-based; details: trypan blue exposure; compared with positive control (100% death by lysis buffer) and negative control (media only); arbitrary luminescence units; worded "expected"
# Method: as §1, §2
# Following exposure, FSS can be injected into the TFEp channel and permeability assayed. […] Samples can be taken from cell-laden channels (individually or combined) and placed in a low volume, white walled […] plate for luminescence analysis using a plate reader. […] The increase in AK release in arbitrary luminescence units compares the toxic exposure of trypan blue to positive and negative controls.
smiles,measurement,setting,value
Cc1cc(-c2ccc(/N=N/c3c(S(=O)(=O)O)cc4cc(S(=O)(=O)O)cc(N)c4c3O)c(C)c2)ccc1/N=N/c1c(S(=O)(=O)O)cc2cc(S(=O)(=O)O)cc(N)c2c1O [trypan blue],Permeability in trypan blue treated devices compared to controls,[1],10 fold
same,Increase in adenylate kinase release,[2],1.5 fold
